The source of these data is US20220389465A1, “METHODS OF REDUCING BIURET IN UREA COMPOSITIONS” (Regents of the University of Minnesota, priority 2019, published 2022).

In assay [1] the target is T1, biuret hydrolase (Rhizobium johnstonii, UniProt Q1M7F4).
T1 construct: six-histidine tag (C); made in house; host or cells: Escherichia coli BL21(DE3)
The assay can be described thus: Inhibition of biuret hydrolase by urea, kinetic constants. Type of assay: biochemical.

In assay [2] the target is T2, triuret hydrolase (TrtA) from Herbaspirillum sp. BH-1 (Herbaspirillum sp. BH-1, UniProt A0A2N6JFX7).
T2 sequence (A0A2N6JFX7 1-227): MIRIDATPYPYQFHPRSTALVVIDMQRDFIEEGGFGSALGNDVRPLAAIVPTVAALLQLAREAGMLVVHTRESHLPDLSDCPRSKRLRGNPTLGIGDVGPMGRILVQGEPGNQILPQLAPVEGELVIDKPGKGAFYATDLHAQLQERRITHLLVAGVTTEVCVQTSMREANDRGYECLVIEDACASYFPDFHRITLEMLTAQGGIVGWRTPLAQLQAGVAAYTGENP
Description: Kinetic constants of triuret hydrolase (Km for triuret, inhibition by urea, FIG. 16B). Format: biochemical. The note with it: urea concentrations up to 50 mM.

For assay [3], the system named is biuret hydrolase. The assay can be described thus: BiuH activity in the presence of urea (Berthelot ammonia assay). Format: biochemical, Herbaspirillum sp. BH-1. The method, then: (§1) Analytical methods: The colorimetric Berthelot ammonia assay was used to measure residual ammonium (NH4^+) present in the urea and to detect NH4^+ released from the residual biuret in urea by addition of biuret hydrolase (BiuH) enzyme. The assay was conducted by adding 0.100 ml of sample directly to 0.300 ml of solution A (10 g/L phenol and 0.050 g/L sodium nitroprusside), followed by addition of 0.400 ml of solution B (5 g/L sodium hydroxide and 8.25 ml/L of commercial chlorine bleach or 5.25% sodium hypochlorite). The reactions were pulsed on a vortex mixer, incubated at 37° C. for 60 min, and then absorbance at 630 nm was read with a Beckman-Coulter DU-640 spectrophotometer. Quantification of NH4^+ was done via a standard curve prepared from ammonium chloride (NH4Cl) (Sigma-Aldrich, St. Louis, Mo.) standards at 5-1000 μM in deionized reverse osmosis (DI/RO) water that were analyzed with the Berthelot reaction.
BiuH activity in the presence of urea: Biuret degradation reactions were performed by adding 10-20 μg purified BiuH to 0.5 ml of urea standards (0.5-8 M) in DI/RO water in 1.7 ml microcentrifuge tubes. […] Total ammonium (NH4^+) was quantified with the Berthelot assay. Residual biuret present in urea was determined by treating unspiked urea standards with BiuH and subtracting the amount of residual NH4^+ detected above. […]

For assay [4], the system named is native biuret hydrolase (BiuH) from Herbaspirillum sp. BH-1, six-histidine tag. Description: BiuH activity in the presence of urea (Berthelot ammonia assay, FIGS. 4, 5A-5B). Format: biochemical. The method, then: FIG. 4. Evaluation of urea inhibition of biuret hydrolase and various urea concentrations. Biuret was added at 0.8 mM concentration and 30 microgram enzyme per ml incubated for 30 minutes.
as §1
Enzyme purification: A synthetic gene encoding the native biuret hydrolase from Herbaspirillum sp. BH-1 was expressed with a C- or N-terminal six-histidine tag from an isopropyl-β-D-thiogalactoside (IPTG)-inducible promoter T7 promoter on a plasmid in Eschrichia coli BL2(DE3). Cells were harvested by centrifugation and lysed with a French pressure cell (two passages at 124 MPa) in a buffer of 20 mM sodium phosphate (pH 7.4), 500 mM sodium chloride, 10 mM imidazole, and 10 mM 2-mercaptoethanol. The resulting crude lysate was centrifuged at 19,000×g for 60 min and the supernatant was passed through a […] filter. An AKTA FPLC system (GE Healthcare, Chicago, Ill.) was used to inject the filtrate (cleared crude lysate) onto a HisTrap affinity column (GE Healthcare) charged with Ni^2+ ions. Bound BiuH was eluted from the column with a linear gradient of 20-250 mM imidazole in the same buffer. […] Total protein concentration was determined with the BioRad (Hercules, Calif.) Bradford protein assay reagent and BiuH purity was verified by SDS-PAGE. […]
BiuH activity in the presence of urea: Biuret degradation reactions were performed by adding 10-20 μg purified BiuH to 0.5 ml of urea standards (0.5-8 M) in DI/RO water in 1.7 ml microcentrifuge tubes. […] Total ammonium (NH4^+) was quantified with the Berthelot assay. Residual biuret present in urea was determined by treating unspiked urea standards with BiuH and subtracting the amount of residual NH4^+ detected above. […] Net NH4^+ released from the spiked biuret by BiuH was calculated by subtracting the amounts of residual biuret and NH4^+ detected in the control treatments. […]

A further assay deals with cyanuric acid hydrolase. The note with it: no turnover observed; cited from earlier work.

T1 sequence (Q1M7F4 whole entry): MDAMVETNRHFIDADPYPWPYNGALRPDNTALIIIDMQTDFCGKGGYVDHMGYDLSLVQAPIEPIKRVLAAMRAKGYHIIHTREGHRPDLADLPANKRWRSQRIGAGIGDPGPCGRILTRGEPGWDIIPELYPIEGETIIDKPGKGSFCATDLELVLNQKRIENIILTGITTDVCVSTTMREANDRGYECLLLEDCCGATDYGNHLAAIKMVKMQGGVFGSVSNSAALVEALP

For orientation: Ki means the equilibrium dissociation constant of an inhibitor or competing ligand from its target. Higher therefore signals lower affinity. As for `NC(N)=O` [urea], on biuret hydrolase [1], the Ki was determined as 34 mM. Moreover, the “inhibition of triuret hydrolase by urea” value with triuret hydrolase (urea concentrations up to 50 mM) is “no inhibition”. In addition, the inhibition by urea result in assay [2] was “no inhibition was measurable”; in assay [4] (4M urea, residual biuret in Fluka urea) it was “slight inhibition”; in assay [4] (10,000 fold higher concentration of urea than biuret), “not inhibited”; in assay [4] (urea concentrations higher than 4M (up to 8.0 M), residual biuret in Fluka urea), “stronger inhibition”; in assay [4] (urea up to 0.5M, 0.8 mM biuret, 30 microgram enzyme per ml, 30 minutes), “not inhibited”. In addition, the “inhibition of biuret hydrolase by urea” value is listed as “slight inhibition” in the assay on biuret hydrolase [3] (4M urea, NH4+ released from residual biuret in 0.5-8.0 M Fluka urea) and “not inhibited” in the assay with biuret hydrolase [3] (urea up to 0.5M, biuret 0.8 mM, 30 microgram enzyme per ml, 30 minutes).

With `O=C1CC(=O)NC(=O)N1` [barbituric acid], the “effect on cyanuric acid hydrolase” value in the assay on cyanuric acid hydrolase is listed as “inhibitor”.

The Km is the substrate concentration at which the rate is half of its maximum. On to `NC(=O)NC(=O)NC(N)=O` [triuret], for which the Michaelis-Menten constant (Km) with triuret hydrolase (read-out: Km for triuret) lay within 20 to 21 µM.
